Experimental data from patent US20130216482A1, “METHODS AND COMPOSITIONS FOR NON-INVASIVE, DYNAMIC IMAGING OF INTESTINAL MOTILITY” (The Board of Regents of the University of Texas System, priority 2012, published 2013).

Assay: In vivo dynamic NIR fluorescence imaging of ICG distribution, clearance and GI transit
Design: species or system mice
Procedure: Mice were chosen because part of the study involved opening the peritoneal cavity and removing organs to provide detailed information about the method and its abilities. Therefore, the subjects of the study were Female C57BL6 mice (4-6 wk old; Charles River, Wilmington, Mass., USA) that were housed and maintained in a pathogen-free mouse facility accredited by the American Association for Laboratory Animal Care. All studies were performed in accordance with the guidelines of the Institutional Animal Care and Use Committee. Animal experiments were approved by University of Texas Health Science Center Institutional Animal Care and Usage Committee in accordance with NIH guidelines.
In order to carry out in vivo dynamic NIR imaging of GI Motility, the mice were anesthetized with isofluorane and maintained at 37° C. on a warming pad. A volume of 10 μl and 50 ul of 645 μM of IC-Green (Akorn, Inc. Buffalo Grove, Ill., USA) dissolved in mixture of distilled water and 0.9% Sodium Chloride in a volume ratio of 1:9 was injected intradermally and intravenously, respectively.
For intravenous injection of ICG, a catheter was placed in the tail vein of anesthetized mice to facilitate the subsequent delivery of the fluorescent dye. Dynamic fluorescence images were acquired for a period of approximately 6 min immediately before and up to 24 hrs after intravenous injection using a custom-built NIR fluorescence imaging system, the basics of which are presented in FIG. 6 and has been described elsewhere (for example U.S. Pat. Nos. 8,084,753; 7,875,260; 7,865,230; 7,599,732; 7,328,059; 7,268,873; 7,187,441; 7,054,002; 6,930,777; 6,771,370; 5,818,583; 5,865,754 and Kwon and Sevick-Muraca, Lymphat Res Biol 5, 219-231, 2007; Kwon and Sevick-Muraca, J Immunol Methods 360, 167-172, 2010). Anesthetized mice were uniformly illuminated by 785 nm light from a laser diode and the emitted fluorescence was collected using an Electron Multiplying Charge Coupled Device (EMCCD) camera with a holographic filter and a bandpass filter placed prior to a 28 mm lens. Image acquisition with the camera exposure time of 100 ms for fluorescence and white light imaging was accomplished by V++ software. The abdominal skin temperature was monitored for temperature changes during dynamic fluorescence imaging using an infrared thermometer but no temperature changes were observed. Because it was possible that the non-invasive imaging of the intestines may not distinguish the GI lumen from blood and lymphatic vessels, necropsy of the mouse with exposure of the abdomen was performed at 1 hr post injection (p.i.) and the GI tract was removed and laid out on a black paper for intravital imaging.
The data obtained were analyzed with a custom Matlab (The MathWorks, Inc., Natick, Mass., USA) program and ImageJ (National Institutes of Health, Bethesda, Md., USA). Fixed regions of interest (ROIs) from equivalent areas were selected along the length of the fluorescent intestine. An average fluorescent intensity within each ROI was plotted as a function of imaging time and/or length of the intestine. A three-dimensional plot of fluorescent intensity as a function of time and distance was generated and used as a spatio-temporal map to assess the propagation velocity and the frequency of the propagation along the intestine. No corrections were made for respiratory movements in the construction of the three-dimensional spatio-temporal maps. The packet of fluorescent contents is represented by the peak in fluorescence intensity which propagates along the intestine with time. Two ROIs were identified, from which the distance and time information was extracted to measure the propagation velocity. In this study, peristalsis was defined as aboral propagation of contraction waves along the intestine.

[1] = 1 hr post injection, abdomen exposed (FIG. 4: intravenous)

fluorescence in the cecum [1]: weak | fluorescence throughout the small intestine [1]: strong but non-uniform | earliest detection of fluorescent signal in the cecum (after intradermal injection, also observed at 24 hr post injection): 1 h | time fluorescent vessels could be visualized (after intravenous administration): up to 2 min | distribution of the ICG throughout the mouse (following intravenous injection): within seconds | fluorescent signal in the liver (injected intravenously, 1 h post injection): greatly reduced | fluorescence in the liver (and gallbladder) (intradermal administration, 1 h post injection): still high | fluorescent signal arising from the stomach (post injection, all times): absent at all times
Structure (SMILES): CC1(C)C(/C=C/C=C/C=C/C=C2\N(CCCCS(=O)(=O)O)c3ccc4ccccc4c3C2(C)C)=[N+](CCCCS(=O)(=O)[O-])c2ccc3ccccc3c21 [ICG, indocyanine green]
source of fluorescent signal in dissected small intestine (GI tract removed 1 hr post injection, contents removed): does not arise from the intestinal tissues, but rather from its contents
